# What was measured:
# Settings in all cases: Compound concentration 10.0 uM
# [1] = molecular target: T1, 5-hydroxytryptamine receptor 3A (Homo sapiens) (UniProt P46098)
# T1 sequence (whole entry): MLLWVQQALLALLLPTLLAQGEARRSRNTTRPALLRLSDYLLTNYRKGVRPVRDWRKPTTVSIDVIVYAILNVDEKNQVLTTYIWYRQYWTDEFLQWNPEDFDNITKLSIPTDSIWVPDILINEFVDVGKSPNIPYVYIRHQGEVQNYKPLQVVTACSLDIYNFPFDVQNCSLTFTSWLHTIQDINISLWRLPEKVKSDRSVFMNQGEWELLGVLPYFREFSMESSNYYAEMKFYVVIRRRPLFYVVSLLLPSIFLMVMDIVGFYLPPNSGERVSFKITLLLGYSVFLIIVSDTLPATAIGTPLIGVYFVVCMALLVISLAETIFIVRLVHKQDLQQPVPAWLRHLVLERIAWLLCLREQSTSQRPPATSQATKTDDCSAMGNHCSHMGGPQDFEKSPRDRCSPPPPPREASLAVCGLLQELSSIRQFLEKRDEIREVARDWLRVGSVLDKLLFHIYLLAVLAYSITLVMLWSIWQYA
# [2] = molecular target: T2, 5-hydroxytryptamine receptor 1A (Homo sapiens) (UniProt P08908)
# T2 sequence (whole entry): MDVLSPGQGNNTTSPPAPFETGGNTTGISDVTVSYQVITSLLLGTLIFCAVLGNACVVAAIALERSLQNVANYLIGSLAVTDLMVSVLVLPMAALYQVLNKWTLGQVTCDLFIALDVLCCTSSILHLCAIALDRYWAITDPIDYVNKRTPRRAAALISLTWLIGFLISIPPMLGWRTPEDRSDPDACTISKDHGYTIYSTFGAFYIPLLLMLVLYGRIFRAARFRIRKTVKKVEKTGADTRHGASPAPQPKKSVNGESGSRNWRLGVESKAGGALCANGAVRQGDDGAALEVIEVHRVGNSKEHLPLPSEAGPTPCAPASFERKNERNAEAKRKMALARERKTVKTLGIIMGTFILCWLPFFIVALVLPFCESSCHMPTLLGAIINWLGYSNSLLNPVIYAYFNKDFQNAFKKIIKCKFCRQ
# [3] = molecular target: D(3) dopamine receptor (Homo sapiens) (UniProt P35462)
# Sequence of D(3) dopamine receptor (Homo sapiens) (P35462 whole entry): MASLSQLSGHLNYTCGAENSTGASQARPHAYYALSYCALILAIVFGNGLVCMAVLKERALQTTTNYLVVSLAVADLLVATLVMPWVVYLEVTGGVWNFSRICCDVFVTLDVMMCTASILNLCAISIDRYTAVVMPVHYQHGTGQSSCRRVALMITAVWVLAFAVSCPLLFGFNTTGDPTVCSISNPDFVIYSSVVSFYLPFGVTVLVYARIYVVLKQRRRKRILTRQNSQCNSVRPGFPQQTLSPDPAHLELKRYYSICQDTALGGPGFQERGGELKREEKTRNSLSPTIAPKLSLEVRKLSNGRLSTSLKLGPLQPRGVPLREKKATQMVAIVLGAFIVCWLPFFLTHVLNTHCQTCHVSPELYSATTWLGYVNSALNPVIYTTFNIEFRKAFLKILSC
# [4] = molecular target: 5-hydroxytryptamine receptor 2B (Homo sapiens, UniProt P41595)
# Sequence of 5-hydroxytryptamine receptor 2B (P41595 whole entry): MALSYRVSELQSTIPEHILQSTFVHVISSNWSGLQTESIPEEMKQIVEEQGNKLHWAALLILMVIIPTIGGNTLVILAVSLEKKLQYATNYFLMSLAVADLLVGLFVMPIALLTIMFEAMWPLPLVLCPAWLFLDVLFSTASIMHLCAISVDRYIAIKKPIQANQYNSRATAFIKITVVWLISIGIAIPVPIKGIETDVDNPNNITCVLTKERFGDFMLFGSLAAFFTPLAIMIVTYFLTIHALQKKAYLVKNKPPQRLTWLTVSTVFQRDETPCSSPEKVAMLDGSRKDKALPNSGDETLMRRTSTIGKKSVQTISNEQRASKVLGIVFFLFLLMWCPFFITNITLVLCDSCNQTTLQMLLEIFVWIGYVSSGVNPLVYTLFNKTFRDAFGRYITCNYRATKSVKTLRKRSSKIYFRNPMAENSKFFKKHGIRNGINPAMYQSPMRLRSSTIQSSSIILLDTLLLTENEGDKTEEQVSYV
# [5] = molecular target: D(4) dopamine receptor (Homo sapiens) (UniProt P21917)
# Sequence of D(4) dopamine receptor (Homo sapiens) (P21917 whole entry): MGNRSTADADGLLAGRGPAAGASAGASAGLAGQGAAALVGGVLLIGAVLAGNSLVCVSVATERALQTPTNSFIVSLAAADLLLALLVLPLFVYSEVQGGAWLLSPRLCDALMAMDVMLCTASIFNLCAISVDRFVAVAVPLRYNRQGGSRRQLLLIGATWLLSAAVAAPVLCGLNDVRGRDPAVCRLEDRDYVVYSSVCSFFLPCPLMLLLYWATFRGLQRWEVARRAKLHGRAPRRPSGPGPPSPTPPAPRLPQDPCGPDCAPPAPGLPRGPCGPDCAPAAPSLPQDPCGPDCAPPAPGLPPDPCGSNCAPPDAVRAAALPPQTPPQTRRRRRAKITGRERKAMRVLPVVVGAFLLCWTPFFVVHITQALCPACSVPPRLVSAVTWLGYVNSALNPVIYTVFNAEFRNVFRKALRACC
# [6] = molecular target: T3, 5-hydroxytryptamine receptor 2C (Homo sapiens) (UniProt P28335)
# T3 sequence (whole entry): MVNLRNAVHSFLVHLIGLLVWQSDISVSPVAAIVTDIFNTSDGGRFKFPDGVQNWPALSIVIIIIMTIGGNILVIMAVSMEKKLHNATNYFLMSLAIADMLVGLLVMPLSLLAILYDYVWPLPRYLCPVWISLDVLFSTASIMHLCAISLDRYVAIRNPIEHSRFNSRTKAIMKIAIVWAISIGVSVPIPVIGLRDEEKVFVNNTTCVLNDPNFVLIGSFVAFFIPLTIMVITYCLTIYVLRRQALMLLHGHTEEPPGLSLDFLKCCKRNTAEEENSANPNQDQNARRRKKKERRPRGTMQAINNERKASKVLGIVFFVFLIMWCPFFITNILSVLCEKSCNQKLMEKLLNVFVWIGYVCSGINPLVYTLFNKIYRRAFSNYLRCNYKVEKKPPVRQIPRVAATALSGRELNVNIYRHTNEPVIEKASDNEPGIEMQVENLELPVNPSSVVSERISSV
# [7] = molecular target: 5-hydroxytryptamine receptor 5A (Homo sapiens) (UniProt P47898)
# Sequence of 5-hydroxytryptamine receptor 5A (Homo sapiens) (P47898 whole entry): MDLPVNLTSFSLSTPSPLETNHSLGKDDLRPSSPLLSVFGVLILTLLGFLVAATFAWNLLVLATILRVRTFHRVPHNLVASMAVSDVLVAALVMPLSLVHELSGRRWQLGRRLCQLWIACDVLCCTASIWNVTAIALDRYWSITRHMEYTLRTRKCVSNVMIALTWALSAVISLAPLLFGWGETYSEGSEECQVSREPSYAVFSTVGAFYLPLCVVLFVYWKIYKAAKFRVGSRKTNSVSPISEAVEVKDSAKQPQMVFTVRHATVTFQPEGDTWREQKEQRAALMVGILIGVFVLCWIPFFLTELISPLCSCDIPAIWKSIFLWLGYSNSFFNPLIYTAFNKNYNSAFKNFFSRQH
# [8] = molecular target: Sodium-dependent serotonin transporter (Homo sapiens) (UniProt P31645)
# Sequence of Sodium-dependent serotonin transporter (Homo sapiens) (P31645 whole entry, looked up): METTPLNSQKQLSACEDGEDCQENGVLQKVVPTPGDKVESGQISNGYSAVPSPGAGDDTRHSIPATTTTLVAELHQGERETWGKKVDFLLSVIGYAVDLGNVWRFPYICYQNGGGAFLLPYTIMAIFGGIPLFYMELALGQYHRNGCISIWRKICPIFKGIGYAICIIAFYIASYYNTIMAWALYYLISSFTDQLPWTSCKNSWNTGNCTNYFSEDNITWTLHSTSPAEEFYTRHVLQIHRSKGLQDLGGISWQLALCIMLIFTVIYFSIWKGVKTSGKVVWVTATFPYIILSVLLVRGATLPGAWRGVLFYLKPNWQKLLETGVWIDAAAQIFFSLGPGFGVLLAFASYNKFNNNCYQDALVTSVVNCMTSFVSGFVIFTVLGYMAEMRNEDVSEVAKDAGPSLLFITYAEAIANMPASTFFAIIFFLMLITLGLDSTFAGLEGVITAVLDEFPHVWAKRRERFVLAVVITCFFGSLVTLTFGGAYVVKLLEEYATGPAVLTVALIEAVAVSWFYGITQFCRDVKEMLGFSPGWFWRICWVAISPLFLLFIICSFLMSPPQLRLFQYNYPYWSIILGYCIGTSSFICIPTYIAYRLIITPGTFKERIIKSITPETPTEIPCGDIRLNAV
# [9] = molecular target: Beta-1 adrenergic receptor (Homo sapiens) (UniProt P08588)
# Sequence of Beta-1 adrenergic receptor (Homo sapiens) (P08588 whole entry, looked up): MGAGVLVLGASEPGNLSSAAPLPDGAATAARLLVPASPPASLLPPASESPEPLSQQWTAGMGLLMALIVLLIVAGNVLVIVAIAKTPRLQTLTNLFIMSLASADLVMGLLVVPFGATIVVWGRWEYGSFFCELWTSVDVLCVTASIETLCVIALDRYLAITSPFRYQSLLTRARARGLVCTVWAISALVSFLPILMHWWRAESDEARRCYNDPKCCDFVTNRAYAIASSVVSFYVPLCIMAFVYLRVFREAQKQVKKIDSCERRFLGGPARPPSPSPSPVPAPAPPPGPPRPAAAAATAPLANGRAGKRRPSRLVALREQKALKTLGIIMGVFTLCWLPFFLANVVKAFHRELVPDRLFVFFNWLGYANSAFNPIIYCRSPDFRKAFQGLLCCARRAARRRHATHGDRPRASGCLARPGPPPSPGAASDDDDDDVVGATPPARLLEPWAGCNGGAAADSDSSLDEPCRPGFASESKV
# [10] = molecular target: GABA-A receptor; anion channel (Rattus norvegicus) (UniProt O09028+P15431+P18506+P18508+P19969+P20236+P23574+P23576+P28471+P28473+P30191+P62813+P63079+P63138+Q91ZM7+Q9ES14)
# [11] = molecular target: T4, Alpha-1B adrenergic receptor (Homo sapiens) (UniProt P35368)
# T4 sequence (whole entry): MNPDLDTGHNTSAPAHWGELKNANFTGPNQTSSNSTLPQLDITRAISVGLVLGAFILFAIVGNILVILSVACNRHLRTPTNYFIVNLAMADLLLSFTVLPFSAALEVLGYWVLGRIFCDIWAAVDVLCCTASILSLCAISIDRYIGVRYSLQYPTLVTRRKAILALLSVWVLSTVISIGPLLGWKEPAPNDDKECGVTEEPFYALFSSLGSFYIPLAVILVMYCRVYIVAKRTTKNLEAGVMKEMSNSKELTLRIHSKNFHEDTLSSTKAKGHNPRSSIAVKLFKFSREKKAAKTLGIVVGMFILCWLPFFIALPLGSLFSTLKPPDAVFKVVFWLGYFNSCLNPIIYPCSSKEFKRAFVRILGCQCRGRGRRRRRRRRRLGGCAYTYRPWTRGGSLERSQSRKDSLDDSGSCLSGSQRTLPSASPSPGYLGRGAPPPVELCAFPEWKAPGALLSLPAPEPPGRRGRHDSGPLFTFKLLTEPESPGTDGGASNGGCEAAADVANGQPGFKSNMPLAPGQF
# [12] = molecular target: Kappa-type opioid receptor (Homo sapiens) (UniProt P41145)
# Sequence of Kappa-type opioid receptor (Homo sapiens) (P41145 whole entry): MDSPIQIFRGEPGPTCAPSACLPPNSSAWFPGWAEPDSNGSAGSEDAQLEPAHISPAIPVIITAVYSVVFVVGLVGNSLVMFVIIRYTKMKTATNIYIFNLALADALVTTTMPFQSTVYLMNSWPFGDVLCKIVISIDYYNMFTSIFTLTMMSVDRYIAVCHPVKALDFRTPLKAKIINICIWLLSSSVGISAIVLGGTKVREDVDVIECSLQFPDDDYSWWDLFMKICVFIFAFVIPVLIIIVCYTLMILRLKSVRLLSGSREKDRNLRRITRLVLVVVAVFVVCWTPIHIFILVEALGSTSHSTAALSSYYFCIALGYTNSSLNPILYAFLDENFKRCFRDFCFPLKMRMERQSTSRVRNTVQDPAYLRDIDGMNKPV
# [13] = molecular target: Mu-type opioid receptor (Homo sapiens) (UniProt P35372)
# Sequence of Mu-type opioid receptor (Homo sapiens) (P35372 whole entry): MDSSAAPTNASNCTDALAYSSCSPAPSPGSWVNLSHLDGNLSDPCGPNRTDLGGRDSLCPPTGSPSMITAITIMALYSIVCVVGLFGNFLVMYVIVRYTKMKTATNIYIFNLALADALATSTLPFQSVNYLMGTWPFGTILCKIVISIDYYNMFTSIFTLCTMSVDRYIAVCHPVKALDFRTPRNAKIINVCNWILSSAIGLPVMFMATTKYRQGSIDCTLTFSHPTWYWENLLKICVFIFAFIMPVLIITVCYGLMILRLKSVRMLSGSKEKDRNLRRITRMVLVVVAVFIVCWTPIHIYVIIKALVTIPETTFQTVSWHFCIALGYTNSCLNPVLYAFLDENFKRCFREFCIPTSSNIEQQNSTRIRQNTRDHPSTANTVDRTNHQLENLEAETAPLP
SMILES,inhibition [1] [%],inhibition [2] [%],inhibition [3] [%],inhibition [4] [%],inhibition [5] [%],inhibition [6] [%],inhibition [7] [%],inhibition [8] [%],inhibition [9] [%],inhibition [10] [%],inhibition [11] [%],inhibition [12] [%],inhibition [13] [%]
c1ccc(C2CCN(c3cnc4c(N5CCOCC5)nccn34)CC2)cc1,9.38,25.7,-6.13,17.7,0.44,5.92,19,3.12,23.5,22.2,0.45,6.44,19.6
COCCc1ccc(-c2c(C)nc3c(N4CCOCC4)ccnn23)cn1 [JNJ-42396302],4.69,22.9,24.1,52.2,-3.39,68.2,3.93,0.57,3.43,34,-8.94,14.5,-1.51
